We go through three compounds from patent US9340600B2 (Indiana University Research and Technology Corporation, priority 2012, dated 2016).

pEC50: −log10 of the molar value. *1 amine or outer side, *2 acyl side, *3 side chain or, on linkers, in order; H or OH if unused. Where a SMILES comes first, the peptide text is derived from it. Side-chain parts run from the residue outwards. [ ]: non-standard residue; d: D form. The star is where a group is joined. γGlu = O=C(O)[C@H](CCC(=O)[*:2])N[*:1]; Palmitoyl = CCCCCCCCCCCCCCCC(=O)*; Aib = CC(C)(N)C(=O)O

The target in test [1] is T1, GIP receptor (Homo sapiens, UniProt P48546).
T1 construct: expressed in transfected cells; host or cells: HEK293
T1 sequence (P48546 22-466): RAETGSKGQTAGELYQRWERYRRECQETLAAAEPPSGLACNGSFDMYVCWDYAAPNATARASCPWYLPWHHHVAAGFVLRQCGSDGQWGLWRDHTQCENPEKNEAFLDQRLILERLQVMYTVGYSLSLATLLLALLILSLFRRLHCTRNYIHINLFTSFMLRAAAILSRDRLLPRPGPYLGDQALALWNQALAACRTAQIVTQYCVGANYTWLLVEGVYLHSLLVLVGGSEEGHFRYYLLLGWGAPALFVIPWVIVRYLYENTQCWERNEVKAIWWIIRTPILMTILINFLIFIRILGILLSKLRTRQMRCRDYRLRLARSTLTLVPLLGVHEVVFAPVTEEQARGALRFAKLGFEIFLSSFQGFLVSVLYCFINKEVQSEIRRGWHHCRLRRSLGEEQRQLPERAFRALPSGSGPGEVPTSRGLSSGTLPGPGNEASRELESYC
The following applies: cited from earlier work.

Test [2] concerns the target T2, glucagon receptor (Homo sapiens, UniProt P47871).
T2 construct: expressed in transfected cells; host or cells: HEK293
Kind of test: cAMP induction, firefly luciferase-based reporter assay in HEK293 cells co-transfected with glucagon receptor. It counts as cell-based. The following applies: EC50 at Glucagon Receptor. An excerpt: (§1) This example describes an exemplary method of testing the biological activity of the peptides of the present disclosures, which method involves assaying cAMP synthesis.
(In general: In a reporter assay the amount or activity of a reporter protein is the signal.)

The target of test [3] is T1, GIP receptor. Kind of test: cAMP induction, firefly luciferase-based reporter assay in HEK293 cells co-transfected with GIP receptor. In kind it is cell-based. The following applies: EC50 at GIP Receptor.
Source text: as §1

Test [4] deals with T3, GLP-1 receptor (Homo sapiens, UniProt P43220).
T3 construct: expressed in transfected cells; host or cells: HEK293
Kind of test: cAMP induction, firefly luciferase-based reporter assay in HEK293 cells co-transfected with GLP-1 receptor. It counts as cell-based. The following applies: EC50 at GLP-1 Receptor.
Source text: as §1

Where [5] appears, read: Table 5, analogs of SEQ ID NO: 10.
Where [6] appears, read: Table 2, analogs of SEQ ID NO: 18 varying at positions 16-21.

T2 sequence (P47871 26-477): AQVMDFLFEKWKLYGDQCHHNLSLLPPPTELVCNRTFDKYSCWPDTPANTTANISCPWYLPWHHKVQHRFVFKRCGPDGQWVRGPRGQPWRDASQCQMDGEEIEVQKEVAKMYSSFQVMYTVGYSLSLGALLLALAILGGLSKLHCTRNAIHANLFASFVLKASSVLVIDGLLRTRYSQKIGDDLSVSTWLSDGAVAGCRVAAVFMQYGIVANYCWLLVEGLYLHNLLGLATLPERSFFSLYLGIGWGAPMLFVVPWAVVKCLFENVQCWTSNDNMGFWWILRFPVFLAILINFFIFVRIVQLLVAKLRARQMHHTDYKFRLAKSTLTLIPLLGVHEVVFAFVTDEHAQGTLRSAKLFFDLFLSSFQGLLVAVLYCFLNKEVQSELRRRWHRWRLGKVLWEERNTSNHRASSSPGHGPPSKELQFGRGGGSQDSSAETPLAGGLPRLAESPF
T3 sequence (P43220 24-463): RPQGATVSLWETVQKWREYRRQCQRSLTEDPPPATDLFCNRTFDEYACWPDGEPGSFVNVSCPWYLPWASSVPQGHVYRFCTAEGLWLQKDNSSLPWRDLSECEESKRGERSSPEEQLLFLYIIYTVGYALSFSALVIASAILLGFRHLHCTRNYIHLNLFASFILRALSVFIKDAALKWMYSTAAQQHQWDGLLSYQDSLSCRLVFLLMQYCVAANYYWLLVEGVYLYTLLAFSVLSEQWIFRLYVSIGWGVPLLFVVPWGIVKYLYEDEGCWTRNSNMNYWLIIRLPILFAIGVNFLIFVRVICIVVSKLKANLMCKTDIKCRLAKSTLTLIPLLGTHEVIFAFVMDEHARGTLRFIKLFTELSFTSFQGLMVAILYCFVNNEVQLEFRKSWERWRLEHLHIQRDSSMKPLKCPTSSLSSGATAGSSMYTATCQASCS

For the compound “Native glucagon: native human glucagon (SEQ ID NO: 1)”, in test [1], the “activation of the GIP receptor” value is “does not activate the GIP receptor”. Also, the “activity of native GIP at the GIP receptor” value in test [1] (relative to native GIP) is roughly 0%.

One may read the pEC50 as the EC50 on a negative log10 scale, so that one unit is a factor of ten. With `CCCCCCCCCCCCCCCC(=O)N[C@@H](CCC(=O)NCCCC[C@H](NC(=O)[C@H](CC(=O)O)NC(=O)[C@H](CO)NC(=O)[C@@H](NC(=O)[C@H](Cc1ccccc1)NC(=O)[C@@H](NC(=O)CNC(=O)[C@H](CCC(N)=O)NC(=O)C(C)(C)NC(=O)[C@@H](N)Cc1c[nH]cn1)[C@@H](C)O)[C@@H](C)O)C(=O)N[C@@H](CO)C(=O)N[C@@H](CCCCN)C(=O)N[C@@H](Cc1ccc(O)cc1)C(=O)N[C@@H](CC(C)C)C(=O)N[C@@H](CC(=O)O)C(=O)N[C@@H](CCC(=O)O)C(=O)N[C@@H](CCCNC(=N)N)C(=O)N[C@@H](C)C(=O)N[C@@H](C)C(=O)N[C@@H](CCC(N)=O)C(=O)N[C@@H](CC(=O)O)C(=O)N[C@@H](Cc1ccccc1)C(=O)N[C@H](C(=O)N[C@@H](CCC(N)=O)C(=O)N[C@@H](Cc1c[nH]c2ccccc12)C(=O)N[C@@H](CC(C)C)C(=O)N[C@@H](CC(C)C)C(=O)N[C@@H](CC(=O)O)C(=O)NC(C)(C)C(=O)NCC(=O)N1CCC[C@H]1C(=O)N[C@@H](CO)C(=O)N[C@@H](CO)C(=O)NCC(=O)N[C@@H](C)C(=O)N1CCC[C@H]1C(=O)N1CCC[C@H]1C(=O)N1CCC[C@H]1C(=O)N[C@@H](CO)C(N)=O)C(C)C)C(=O)O` [compound 65] (H-H[Aib]QGTFTSDK([γGlu-Palmitoyl])SKYLDERAAQDFVQWLLD[Aib]GPSSGAPPPS-NH2; N-terminus assumed), the pEC50 was 11.70 in test [2] (setting [5]), 11.30 in test [3] (setting [5]) and 11.52 in test [4] (setting [5]).

With `CCCCCCCCCCCCCCCC(=O)N[C@@H](CCC(=O)NCCCC[C@H](NC(=O)[C@H](CC(=O)O)NC(=O)[C@H](CO)NC(=O)[C@@H](NC(=O)[C@H](Cc1ccccc1)NC(=O)[C@@H](NC(=O)CNC(=O)[C@H](CCC(N)=O)NC(=O)C(C)(C)NC(=O)[C@@H](N)Cc1c[nH]cn1)[C@@H](C)O)[C@@H](C)O)C(=O)N[C@@H](CO)C(=O)N[C@@H](CCCCN)C(=O)N[C@@H](Cc1ccc(O)cc1)C(=O)N[C@@H](CC(C)C)C(=O)N[C@@H](CC(=O)O)C(=O)N[C@@H](C)C(=O)N[C@@H](CCCNC(=N)N)C(=O)N[C@@H](C)C(=O)N[C@@H](C)C(=O)NC(C)(C)C(=O)N[C@@H](CCC(=O)O)C(=O)N[C@@H](Cc1ccccc1)C(=O)N[C@H](C(=O)N[C@@H](CCC(N)=O)C(=O)N[C@@H](Cc1c[nH]c2ccccc12)C(=O)N[C@@H](CC(C)C)C(=O)N[C@@H](CC(C)C)C(=O)N[C@@H](CC(=O)O)C(=O)NCC(=O)NCC(=O)N1CCC[C@H]1C(=O)N[C@@H](CO)C(=O)N[C@@H](CO)C(=O)NCC(=O)N[C@@H](C)C(=O)N1CCC[C@H]1C(=O)N1CCC[C@H]1C(=O)N1CCC[C@H]1C(=O)N[C@@H](CO)C(N)=O)C(C)C)C(=O)O` [compound 22] (H-H[Aib]QGTFTSDK([γGlu-Palmitoyl])SKYLDARAA[Aib]EFVQWLLDGGPSSGAPPPS-NH2), the pEC50 in test [2] (setting [6]) was 11.30; in test [3] (setting [6]) it was 11.40; in test [4] (setting [6]) it was 10.96.
